Experimental data as given in ChEMBL document CHEMBL1201862, “PubChem BioAssay data set” (2004).
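Method: 48-hour compound exposure of cells in 96-well plates, five concentrations, linear interpolation of endpoints. GI50 is the concentration that inhibits growth by half.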 Calls of active or inactive are those of the source. No stated cut-off is given here; in the data, active = GI50 up to about 1.1 µM and inactive = higher.

Key:
Test in all cases: NCI tumour cell line growth inhibition, 48 h
MOLT-4 = test system: MOLT-4
LXFL 529 = test system: LXFL 529
786-0 = test system: 786-0
DMS-114 = test system: DMS-114
SF-539 = test system: SF-539
A498 = test system: A498
HCT-15 = test system: HCT-15
HCC 2998 = test system: HCC 2998
EKVX = test system: EKVX
OVCAR-4 = test system: OVCAR-4
Malme-3M = test system: Malme-3M
SF-295 = test system: SF-295
SK-MEL-2 = test system: SK-MEL-2
U-251 = test system: U-251
RXF 393 = test system: RXF 393
OVCAR-3 = test system: OVCAR-3
LOX IMVI = test system: LOX IMVI
SK-MEL-5 = test system: SK-MEL-5
SNB-78 = test system: SNB-78
KM12 = test system: KM12
HT-29 = test system: HT-29
DMS-273 = test system: DMS-273
SK-MEL-28 = test system: SK-MEL-28
SF-268 = test system: SF-268
NCI-H522 = test system: NCI-H522
NCI-H460 = test system: NCI-H460
HOP-18 = test system: HOP-18
SK-OV-3 = test system: SK-OV-3
NCI-H23 = test system: NCI-H23
M14 = test system: M14
TK-10 = test system: TK-10
M19-MEL = test system: M19-MEL
SNB-75 = test system: SNB-75
ACHN = test system: ACHN
HOP-62 = test system: HOP-62
OVCAR-8 = test system: OVCAR-8
A549 = test system: A549
HOP-92 = test system: HOP-92
SR = test system: SR
IGROV-1 = test system: IGROV-1
UO-31 = test system: UO-31
K562 = test system: K562
RXF 631 = test system: RXF 631
SN12C = test system: SN12C
UACC-62 = test system: UACC-62
OVCAR-5 = test system: OVCAR-5
HCT-116 = test system: HCT-116
KM-20L2 = test system: KM-20L2
SNB-19 = test system: SNB-19
SW-620 = test system: SW-620
RPMI-8226 = test system: RPMI-8226
CAKI-1 = test system: CAKI-1
XF498 = test system: XF498
UACC-257 = test system: UACC-257
HL-60 = test system: HL-60
COLO 205 = test system: COLO 205
DLD-1 = test system: DLD-1
CCRF-CEM = test system: CCRF-CEM
NCI-H226 = test system: NCI-H226

For C=C1C(=O)C23[C@H](O)C1CC[C@H]2[C@]12COC3(O)[C@@H](O)[C@@H]1C(C)(C)CC[C@@H]2O, the GI50 (MOLT-4) was 3.27 µM (inactive), the GI50 (LXFL 529) was 1.27 µM (inactive) and the GI50 (786-0) was 11 µM (inactive). The GI50 (DMS-114) was 7.38 µM (inactive), the GI50 (SF-539) was 6.98 µM (inactive) and the GI50 (A498) was 9.1 µM (inactive). For the same compound, the GI50 (HCT-15) was 3.33 µM, the GI50 (HCC 2998) was 15.8 µM (inactive) and the GI50 (EKVX) was 19.7 µM (inactive). The GI50 (OVCAR-4) was 18 µM (inactive), the GI50 (Malme-3M) was 2.49 µM (inactive) and the GI50 (SF-295) was 17.6 µM (inactive). For the same compound, the GI50 (SK-MEL-2) was 2.28 µM (inactive), the GI50 (U-251) was 6.04 µM (inactive) and the GI50 (RXF 393) was 2.57 µM (inactive). The GI50 (OVCAR-3) was 14.8 µM (inactive), the GI50 (LOX IMVI) was 14.2 µM (inactive) and the GI50 (SK-MEL-5) was 15.1 µM (inactive). For the same compound, the GI50 (SNB-78) was 3.44 µM (inactive), the GI50 (KM12) was 16.9 µM (inactive) and the GI50 (HT-29) was 14.4 µM (inactive). The GI50 (DMS-273) was 13.6 µM (inactive), the GI50 (SK-MEL-28) was 2.72 µM (inactive) and the GI50 (SF-268) was 4.76 µM (inactive). The GI50 (NCI-H522) was 0.552 µM (active), the GI50 (NCI-H460) was 16 µM (inactive) and the GI50 (HOP-18) was 12.2 µM (inactive). The GI50 (SK-OV-3) was 17.1 µM (inactive), the GI50 (NCI-H23) was 13.5 µM (inactive) and the GI50 (M14) was 5.57 µM (inactive). For the same compound, the GI50 (TK-10) was 17.2 µM (inactive), the GI50 (M19-MEL) was 12.9 µM (inactive) and the GI50 (SNB-75) was 20.4 µM (inactive). For the same compound, the GI50 (ACHN) was 16.1 µM (inactive), the GI50 (HOP-62) was 20.6 µM (inactive) and the GI50 (OVCAR-8) was 13.4 µM (inactive). For the same compound, the GI50 (A549) was 23.3 µM (inactive), the GI50 (HOP-92) was 3.95 µM (inactive) and the GI50 (SR) was 1.34 µM (inactive). The GI50 (IGROV-1) was 21.4 µM (inactive), the GI50 (UO-31) was 15.4 µM (inactive) and the GI50 (K562) was 3.09 µM (inactive). The GI50 (RXF 631) was 10.1 µM (inactive), the GI50 (SN12C) was 20.1 µM (inactive) and the GI50 (UACC-62) was 10.9 µM (inactive). For the same compound, the GI50 (OVCAR-5) was 18.5 µM (inactive), the GI50 (HCT-116) was 7.28 µM (inactive) and the GI50 (KM-20L2) was 13.7 µM (inactive). For the same compound, the GI50 (SNB-19) was 18.5 µM (inactive), the GI50 (SW-620) was 1.84 µM (inactive) and the GI50 (RPMI-8226) was 4.08 µM (inactive). For the same compound, the GI50 (CAKI-1) was 1.98 µM (inactive), the GI50 (XF498) was 3.46 µM (inactive) and the GI50 (UACC-257) was 15.5 µM (inactive). The GI50 (HL-60) was 4.27 µM (inactive), the GI50 (COLO 205) was 0.452 µM (active) and the GI50 (DLD-1) was 11.3 µM (inactive). The GI50 (CCRF-CEM) was 3.03 µM (inactive).
For CCc1ccccc1NC(=O)C(=O)C1C(=O)N(c2ccccc2)N=C1N (configuration not stated), the GI50 (MOLT-4) was 8.3 µM (inactive), the GI50 (LXFL 529) was > 100 µM (inactive) and the GI50 (786-0) was > 100 µM (inactive). For the same compound, the GI50 (DMS-114) was > 100 µM (inactive), the GI50 (SF-539) was > 100 µM (inactive) and the GI50 (A498) was > 100 µM (inactive). For the same compound, the GI50 (HCT-15) was over 100 µM, the GI50 (HCC 2998) was > 100 µM (inactive) and the GI50 (EKVX) was > 100 µM (inactive). For the same compound, the GI50 (OVCAR-4) was > 100 µM (inactive), the GI50 (Malme-3M) was > 100 µM (inactive) and the GI50 (SF-295) was > 100 µM (inactive). For the same compound, the GI50 (SK-MEL-2) was > 100 µM (inactive), the GI50 (U-251) was > 100 µM (inactive) and the GI50 (RXF 393) was > 100 µM (inactive). The GI50 (OVCAR-3) was > 100 µM (inactive), the GI50 (LOX IMVI) was > 100 µM (inactive) and the GI50 (SK-MEL-5) was > 100 µM (inactive). For the same compound, the GI50 (SNB-78) was > 100 µM (inactive), the GI50 (KM12) was > 100 µM (inactive) and the GI50 (HT-29) was > 100 µM (inactive). For the same compound, the GI50 (DMS-273) was > 100 µM (inactive), the GI50 (SK-MEL-28) was > 100 µM (inactive) and the GI50 (SF-268) was > 100 µM (inactive). The GI50 (NCI-H460) was > 100 µM (inactive), the GI50 (HOP-18) was > 100 µM (inactive) and the GI50 (NCI-H23) was > 100 µM (inactive). For the same compound, the GI50 (M14) was > 100 µM (inactive), the GI50 (TK-10) was > 100 µM (inactive) and the GI50 (M19-MEL) was > 100 µM (inactive). The GI50 (SNB-75) was > 100 µM (inactive), the GI50 (ACHN) was > 100 µM (inactive) and the GI50 (HOP-62) was > 100 µM (inactive). For the same compound, the GI50 (OVCAR-8) was > 100 µM (inactive), the GI50 (A549) was > 100 µM (inactive) and the GI50 (HOP-92) was > 100 µM (inactive). The GI50 (IGROV-1) was > 100 µM (inactive), the GI50 (UO-31) was > 100 µM (inactive) and the GI50 (K562) was > 100 µM (inactive). For the same compound, the GI50 (RXF 631) was > 100 µM (inactive), the GI50 (SN12C) was > 100 µM (inactive) and the GI50 (UACC-62) was > 100 µM (inactive). The GI50 (OVCAR-5) was > 100 µM (inactive), the GI50 (HCT-116) was > 100 µM (inactive) and the GI50 (KM-20L2) was > 100 µM (inactive). For the same compound, the GI50 (SNB-19) was > 100 µM (inactive), the GI50 (SW-620) was > 100 µM (inactive) and the GI50 (RPMI-8226) was > 100 µM (inactive). The GI50 (NCI-H226) was > 100 µM (inactive), the GI50 (CAKI-1) was > 100 µM (inactive) and the GI50 (XF498) was > 100 µM (inactive). For the same compound, the GI50 (UACC-257) was > 100 µM (inactive), the GI50 (HL-60) was 72.4 µM (inactive) and the GI50 (DLD-1) was > 100 µM (inactive).
